Source: article PMC6152618, “Antimicrobial Activity of Truncated and Polyvalent Peptides Derived from the FKCRRWQWRMKKGLA Sequence against Escherichia coli ATCC 25922 and Staphylococcus aureus ATCC 25923” (Molecules : A Journal of Synthetic Chemistry and Natural …, 2017)
Values after ≈ are worked out from the molar mass of the structure shown. Where two headings read alike, the source gives them in different places. Ends that are not written are not given here.

Experiments:
[1] = test system: Escherichia coli ATCC 25922; format: cell-based
Procedure: (§1) The MIC was determined using a microdilution assay. In brief, bacterial strains were incubated for 18 to 24 h at 37 °C in an Müller-Hinton (MH) broth until an optical density of 0.15 to 0.30 (620 nm) was obtained. Next, 90 μL of Mueller-Hinton broth (MHB) was mixed with […], and serial dilutions (200, 100, 50, 25, 12.5 and 6.2) were prepared in 96-well microplates (final volume 100 μL/well). Then, 10 μL of inoculum (2 × 10^6 CFU/mL) was added to each well. The final volume in each well was 100 μL. Then they were incubated for 24 h at 37 °C; the absorbance at 620 nm was measured using an Asys Expert Plus ELISA reader. For determining the MBC, a small sample was taken from each well using an inoculation loop, and then was spread on MH agar plates and incubated overnight at 37 °C. MBC was considered on the plate which presented no bacterial growth. Each of these tests was performed twice (n = 2).

[2] = test system: Staphylococcus aureus ATCC 25923; format: cell-based
Procedure: as §1

E coli = conditions: cited from earlier work
Description: (§2) Please note that in this sequence some C-terminal positions have been changed compared to LfcinB 17–31 [38, 48]. The peptide LfcinB 17–31 has been studied for its relative structure and antibacterial activit ...

S. aureus [3] = conditions: cited from earlier work
Description: as §2

E. coli ML35 = conditions: cited from earlier work
Description: as §2

S. aureus 42D = conditions: cited from earlier work
Description: as §2

E. coli L361 = test system: E. coli L361; parameters: method as in PMID 8980754; conditions: cited from earlier work
E. coli O9 = test system: E. coli O9; parameters: method as in PMID 8980754; conditions: cited from earlier work
S. aureus [4] = test system: S. aureus; parameters: method as in PMID 8980754; conditions: cited from earlier work
[5] = microdilution, Mueller-Hinton broth, 24 h at 37 °C, absorbance 620 nm, n = 2
[6] = sample of each well spread on MH agar, overnight 37 °C, no bacterial growth, n = 2

Compound: CSCC[C@H](NC(=O)[C@H](CCCNC(=N)N)NC(=O)[C@H](Cc1c[nH]c2ccccc12)NC(=O)[C@H](CCC(N)=O)NC(=O)[C@H](Cc1c[nH]c2ccccc12)NC(=O)[C@H](CCCNC(=N)N)NC(=O)[C@H](CCCNC(=N)N)NC(=O)[C@H](CS)NC(=O)[C@H](CCCCN)NC(=O)[C@@H](N)Cc1ccccc1)C(=O)N[C@@H](CCCCN)C(=O)N[C@@H](CCCCN)C(=O)N[C@@H](CC(C)C)C(=O)NCC(=O)N[C@@H](C)C(N)=O [LfcinB 17–31, reference compound]
- MIC E. coli ATCC 25922 [1, 5]: 200 µM (≈ 399 µg/mL)
- MBC E. coli ATCC 25922 [1, 6]: >200 µM
- MIC S. aureus ATCC 25923 [2, 5]: >200 µM
- MBC S. aureus ATCC 25923 [2, 6]: >200 µM

Compound: FKCRRWQWRMKK-NH2 [LfcinB 17–28]
- MBC E. coli ATCC 25922 ([1]; ATCC 25922): 200 µM
- MIC E. coli ATCC 25922 ([1]; ATCC 25922, 24 h): 200 µM
- MBC S. aureus ATCC 25923 ([2]; ATCC 25923): >200 µM
- MIC S. aureus ATCC 25923 ([2]; ATCC 25923, 24 h): >200 µM

Compound: SKCYQWQRRMRKLGA
- MIC E coli (E coli): 252 µM
- MIC S. aureus (S. aureus [3]): > 500 µM

Compound: (FKARRWQWRMKKLGA)2K-Ahx-C [([Ala^19]-LfcinB 17–31)2]
- MIC S. aureus ATCC 25923 [2, 5]: 12.5 µM
- MBC S. aureus ATCC 25923 [2, 6]: 12.5 µM

Compound: KCRRWQWRMKKLGA [LfcinB 18–31, …, truncated peptide of LfcinB 17–31]
- MIC E. coli ATCC 25922 [1, 5]: >200 µM
- MBC E. coli ATCC 25922 [1, 6]: >200 µM
- MIC S. aureus ATCC 25923 [2, 5]: >200 µM
- MBC S. aureus ATCC 25923 [2, 6]: >200 µM

Compound: FKCRRWQWRMK-NH2 [LfcinB 17–27]
- MBC E. coli ATCC 25922 ([1]; ATCC 25922): 200 µM
- MIC E. coli ATCC 25922 ([1]; ATCC 25922, 24 h): 100 µM
- MBC S. aureus ATCC 25923 ([2]; ATCC 25923): >200 µM
- MIC S. aureus ATCC 25923 ([2]; ATCC 25923, 24 h): >200 µM

Compound: FKCRRWQWRMKKL-NH2 [LfcinB 17–29]
- MBC E. coli ATCC 25922 ([1]; ATCC 25922): >200 µM
- MIC E. coli ATCC 25922 ([1]; ATCC 25922, 24 h): 200 µM

Compound: LfcinB 20–30: literature analogue of LfcinB 20-31 (CVRRAFALECI; lactoferricin B; UniProt P24627 55-65, looked up, fragment)
- LD99.9 E. coli ML35 (E. coli ML35): 15 µM
- LD99.9 S. aureus 42D (S. aureus 42D): 7.5 µM

Compound: FKCRRWQWRM-NH2 [LfcinB 17–26]
- MIC E. coli ATCC 25922 [1, 5]: 100 µM
- MBC E. coli ATCC 25922 [1, 6]: 200 µM
- MIC S. aureus ATCC 25923 [2, 5]: 200 µM
- MBC S. aureus ATCC 25923 [2, 6]: 200 µM

Compound: FKCRRWQWRMKKLG-NH2 [LfcinB 17–30]
- MBC E. coli ATCC 25922 ([1]; ATCC 25922): 200 µM
- MIC E. coli ATCC 25922 ([1]; ATCC 25922, 24 h): 200 µM
- MBC S. aureus ATCC 25923 ([2]; ATCC 25923): >200 µM
- MIC S. aureus ATCC 25923 ([2]; ATCC 25923, 24 h): >200 µM

Compound: RRWQWR-NH2 [LfcinB 20–25, reference compound]
- MBC E. coli ATCC 25922 ([1]; ATCC 25922): >200 µM
- MIC E. coli ATCC 25922 ([1]; ATCC 25922, 24 h): >200 µM
- MBC S. aureus ATCC 25923 ([2]; ATCC 25923): >200 µM
- MIC S. aureus ATCC 25923 ([2]; ATCC 25923, 24 h): >200 µM

Compound: CSCC[C@H](NC(=O)[C@H](CCCNC(=N)N)NC(=O)[C@H](Cc1c[nH]c2ccccc12)NC(=O)[C@H](CCC(N)=O)NC(=O)[C@H](Cc1c[nH]c2ccccc12)NC(=O)[C@H](CCCNC(=N)N)NC(=O)[C@H](CCCNC(=N)N)NC(=O)[C@H](C)NC(=O)[C@H](CCCCN)NC(=O)[C@@H](N)Cc1ccccc1)C(=O)N[C@@H](CCCCN)C(=O)N[C@@H](CCCCN)C(=O)N[C@@H](CC(C)C)C(=O)NCC(=O)N[C@@H](C)C(=O)O [[Ala^19]-LfcinB 17–31]
- MBC S. aureus ATCC 25923 ([2]; ATCC 25923): >200 µM
- MIC S. aureus ATCC 25923 ([2]; ATCC 25923, 24 h): >200 µM

Compound: FKCRRWQWR-Homoserine lactone [subfragment 1, literature peptide …-Homoserine lactone]
- antibacterial activity against E. coli L361 (E. coli L361): 10 µM
- antibacterial activity against E. coli O9 (E. coli O9): 15 µM
- antibacterial activity against S. aureus (S. aureus [4]): > 50 µM

Compound: RWQWRWQWR [(LfcinB 21–25)Pal]
- MIC E. coli ATCC 25922 ([1]; ATCC 25922, 24 h): 12.5 µM

Compound: CRRWQWRMKKLGA-NH2 [LfcinB 19–31]
- MBC E. coli ATCC 25922 ([1]; ATCC 25922): 100 µM
- MIC E. coli ATCC 25922 ([1]; ATCC 25922, 24 h): 100 µM
- MBC S. aureus ATCC 25923 ([2]; ATCC 25923): >200 µM
- MIC S. aureus ATCC 25923 ([2]; ATCC 25923, 24 h): >200 µM

Compound: FKCRRWQWR-NH2 [LfcinB 17–25]
- MBC E. coli ATCC 25922 ([1]; ATCC 25922): 100 µM
- MIC E. coli ATCC 25922 ([1]; ATCC 25922, 24 h): 100 µM
- MBC S. aureus ATCC 25923 ([2]; ATCC 25923): >200 µM
- MIC S. aureus ATCC 25923 ([2]; ATCC 25923, 24 h): >200 µM

Compound: RRWQWRMKKLGA [LfcinB 20–31]
- MBC E. coli ATCC 25922 ([1]; ATCC 25922): >200 µM
- MIC E. coli ATCC 25922 ([1]; ATCC 25922, 24 h): 200 µM
- MBC S. aureus ATCC 25923 ([2]; ATCC 25923): >200 µM
- MIC S. aureus ATCC 25923 ([2]; ATCC 25923, 24 h): >200 µM
